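The concentration for 50% growth inhibition is given as GI50. Definition used: TGI = concentration required for complete inhibition of growth.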
Legend:
Experiment in all cases: NCI anticancer screen, dose series, 384-well format
[1] = tested on: MDA-MB-231 breast
[2] = tested on: HT29 colon
[3] = tested on: HCC-2998 colon
[4] = tested on: SK-MEL-28 melanoma
[5] = tested on: EKVX NSCLC
[6] = tested on: SR leukemia
[7] = tested on: SNB-19 CNS
[8] = tested on: OVCAR-5 ovarian
[9] = tested on: MALME-3M melanoma
[10] = tested on: IGROV1 ovarian
[11] = tested on: BT-549 breast
[12] = tested on: A498 renal
[13] = tested on: HOP-92 NSCLC
[14] = tested on: M14 melanoma
[15] = tested on: COLO 205 colon
[16] = tested on: UO-31 renal
[17] = tested on: SK-OV-3 ovarian
[18] = tested on: NCI-H226 lung
[19] = tested on: CCRF-CEM leukemia
[20] = tested on: MCF7 breast
[21] = tested on: KM12 colon
[22] = tested on: SW-620 colon
[23] = tested on: HS 578T breast
[24] = tested on: SNB-75 CNS
[25] = tested on: MDA-MB-435 melanoma
[26] = tested on: NCI-H23 lung
[27] = tested on: SF-539 CNS
[28] = tested on: RPMI-8226 leukemia
[29] = tested on: SN12C renal
[30] = tested on: SF-295 CNS
[31] = tested on: MOLT-4 leukemia
[32] = tested on: HOP-62 NSCLC
[33] = tested on: T-47D breast
[34] = tested on: OVCAR-8 ovarian
[35] = tested on: UACC-257 melanoma
[36] = tested on: A549 NSCLC
[37] = tested on: HL-60(TB) leukemia
[38] = tested on: CAKI-1 renal
[39] = tested on: NCI/ADR-RES ovarian
[40] = tested on: NCI-H460 NSCLC
[41] = tested on: LOX IMVI melanoma
[42] = tested on: SK-MEL-5 melanoma
[43] = tested on: MDA-MB-468 breast
[44] = tested on: NCI-H522 lung
[45] = tested on: TK-10 renal
[46] = tested on: RXF 393 renal
[47] = tested on: SF-268 CNS
[48] = tested on: DU-145 prostate
[49] = tested on: PC-3 prostate
[50] = tested on: OVCAR-4 ovarian
[51] = tested on: 786-0 renal

## N[C@@H]1CCCN(c2c(Br)cnc3[nH]cc(NC(=O)C4CC4)c23)C1
[1]
  GI50: 318 nM
  TGI: 18300 nM
[2]
  GI50: 197 nM
  TGI: 524 nM
[3]
  GI50: 15.3 nM
  TGI: 45.5 nM
[4]
  GI50: 244 nM
  TGI: > 100000 nM
[5]
  GI50: 184 nM
  TGI: > 100000 nM
[6]
  GI50: 15.1 nM
  TGI: 29.4 nM
[7]
  GI50: 220 nM
  TGI: > 100000 nM
[8]
  GI50: 79.4 nM
  TGI: 433 nM
[9]
  GI50: 23.4 nM
  TGI: 219 nM
[10]
  GI50: 61.1 nM
  TGI: > 100000 nM
[11]
  GI50: 18.6 nM
  TGI: 42.7 nM
[12]
  GI50: 12 nM
  TGI: 31.2 nM
[13]
  GI50: 19.2 nM
  TGI: 57.7 nM
[14]
  GI50: 19.1 nM
  TGI: 41.7 nM
[15]
  GI50: 269 nM
  TGI: 2690 nM
[16]
  GI50: 52.7 nM
  TGI: > 100000 nM
[17]
  GI50: 34.2 nM
  TGI: 162 nM
[18]
  GI50: 7470 nM
  TGI: 56100 nM
[19]
  GI50: 19 nM
  TGI: 37.5 nM
[20]
  GI50: 25.1 nM
  TGI: > 100000 nM
[21]
  GI50: 57.4 nM
  TGI: > 100000 nM
[22]
  GI50: 379 nM
  TGI: 36400 nM
[23]
  GI50: 14.3 nM
  TGI: 41 nM
[24]
  GI50: 262 nM
  TGI: 4580 nM
[25]
  GI50: 30.5 nM
  TGI: 124 nM
[26]
  GI50: 21 nM
  TGI: 69.5 nM
[27]
  GI50: 17.4 nM
  TGI: 35.8 nM
[28]
  GI50: 18.7 nM
  TGI: 97.9 nM
[29]
  GI50: 450 nM
  TGI: 4270 nM
[30]
  GI50: 23.5 nM
  TGI: 68.8 nM
[31]
  GI50: 14.1 nM
  TGI: 27.8 nM
[32]
  GI50: 36.5 nM
  TGI: 202 nM
[33]
  GI50: > 100000 nM
  TGI: > 100000 nM
[34]
  GI50: 28.7 nM
  TGI: 112 nM
[35]
  GI50: 368 nM
  TGI: > 100000 nM
[36]
  GI50: 303 nM
  TGI: > 100000 nM
[37]
  GI50: 18 nM
  TGI: 35.4 nM
[38]
  GI50: 361 nM
  TGI: 14200 nM
[39]
  GI50: 51.7 nM
  TGI: 197 nM
[40]
  GI50: 118 nM
  TGI: 1500 nM
[41]
  GI50: 276 nM
  TGI: 1870 nM
[42]
  GI50: 27.7 nM
  TGI: 128 nM
[43]
  GI50: 20 nM
  TGI: 76 nM
[44]
  GI50: 1510 nM
  TGI: 9610 nM
[45]
  GI50: 24.2 nM
  TGI: 64.7 nM
[46]
  GI50: 20.7 nM
  TGI: 45.5 nM
[47]
  GI50: 241 nM
  TGI: > 100000 nM
[48]
  GI50: 172 nM
  TGI: > 100000 nM
[49]
  GI50: 11800 nM
  TGI: 65600 nM
[50]
  GI50: 17.7 nM
  TGI: 44.8 nM
[51]
  GI50: 26.8 nM
  TGI: 78.9 nM
